# From patent US20250215029A1 (Recludix Pharma, Inc., priority 2022, published 2025)
# Read-outs that look alike come from different tables or passages of the source.
# Key:
# pY705-STAT3 in PBMC = biological target: T1, pY705-STAT3 in PBMC (Homo sapiens, UniProt P40763); assay: MSD-pSTAT-PBMC Assay (pSTAT3, IL-6 stimulated); format: cell-based; conditions: PBMC, compound 3 hrs, then 10 ng/mL IL-6 for 10 min
# T1 construct: Cryopreserved Peripheral Blood Mononuclear Cells (PBMC) are from AllCells; host or cells: cryopreserved PBMC
# How it was run: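 PBMC (human, cryopreserved, overnight recovery) + cpd 3 hrs → IL-6 10 ng/mL (STAT3) or IL-4 1 ng/mL (STAT6) ×10 min → lysis with protease/phosphatase inhibitors → MSD capture/phospho detection. IC50, variable slope, DMSO-normalized.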
# pY641-STAT6 in PBMC = biological target: T2, pY641-STAT6 in PBMC (Homo sapiens, UniProt P42226); assay: MSD-pSTAT-PBMC Assay (pSTAT6, IL-4 stimulated); format: cell-based; conditions: compound 3 hrs, then 1 ng/mL IL-4 for 10 min
# T2 construct: Cryopreserved Peripheral Blood Mononuclear Cells (PBMC) are from AllCells; host or cells: cryopreserved PBMC
# T2 sequence (P42226 1-847): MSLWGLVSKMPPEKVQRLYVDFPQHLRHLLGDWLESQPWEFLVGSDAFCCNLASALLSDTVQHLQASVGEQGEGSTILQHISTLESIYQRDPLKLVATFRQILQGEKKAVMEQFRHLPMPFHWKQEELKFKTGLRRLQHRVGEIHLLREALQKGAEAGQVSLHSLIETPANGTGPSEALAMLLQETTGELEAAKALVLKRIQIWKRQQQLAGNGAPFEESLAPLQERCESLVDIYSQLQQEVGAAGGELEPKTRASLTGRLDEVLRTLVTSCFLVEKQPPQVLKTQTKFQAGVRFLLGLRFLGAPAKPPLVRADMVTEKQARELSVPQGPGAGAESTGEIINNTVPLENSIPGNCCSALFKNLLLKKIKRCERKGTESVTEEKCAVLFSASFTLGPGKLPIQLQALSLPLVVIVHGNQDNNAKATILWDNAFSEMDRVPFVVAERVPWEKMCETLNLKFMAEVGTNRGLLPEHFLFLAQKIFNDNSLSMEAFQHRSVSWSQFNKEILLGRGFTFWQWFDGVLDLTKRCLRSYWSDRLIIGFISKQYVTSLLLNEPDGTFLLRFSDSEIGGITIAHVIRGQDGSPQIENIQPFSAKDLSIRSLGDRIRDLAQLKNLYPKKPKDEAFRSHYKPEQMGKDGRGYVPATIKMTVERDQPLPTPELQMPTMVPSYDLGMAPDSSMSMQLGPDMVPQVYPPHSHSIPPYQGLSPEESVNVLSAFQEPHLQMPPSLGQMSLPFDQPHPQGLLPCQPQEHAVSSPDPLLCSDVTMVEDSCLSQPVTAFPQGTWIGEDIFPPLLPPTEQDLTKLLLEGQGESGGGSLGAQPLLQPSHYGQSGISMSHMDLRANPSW
# How it was run: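 Cells are preincubated with compound for 3 hrs, then stimulated for 10 min, IL-4 at 1 ng/mL driving STAT6 phosphorylation and IL-6 at 10 ng/mL driving STAT3. Phospho-STAT in lysates is quantified by MSD immunoassay, and IC50 is fitted after subtracting unstimulated wells.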
# [1] = PBMC, Table 1114, read-out: pSTAT6
# [2] = PBMC, Table 115, read-out: STAT6
# T1 sequence (P40763 whole entry): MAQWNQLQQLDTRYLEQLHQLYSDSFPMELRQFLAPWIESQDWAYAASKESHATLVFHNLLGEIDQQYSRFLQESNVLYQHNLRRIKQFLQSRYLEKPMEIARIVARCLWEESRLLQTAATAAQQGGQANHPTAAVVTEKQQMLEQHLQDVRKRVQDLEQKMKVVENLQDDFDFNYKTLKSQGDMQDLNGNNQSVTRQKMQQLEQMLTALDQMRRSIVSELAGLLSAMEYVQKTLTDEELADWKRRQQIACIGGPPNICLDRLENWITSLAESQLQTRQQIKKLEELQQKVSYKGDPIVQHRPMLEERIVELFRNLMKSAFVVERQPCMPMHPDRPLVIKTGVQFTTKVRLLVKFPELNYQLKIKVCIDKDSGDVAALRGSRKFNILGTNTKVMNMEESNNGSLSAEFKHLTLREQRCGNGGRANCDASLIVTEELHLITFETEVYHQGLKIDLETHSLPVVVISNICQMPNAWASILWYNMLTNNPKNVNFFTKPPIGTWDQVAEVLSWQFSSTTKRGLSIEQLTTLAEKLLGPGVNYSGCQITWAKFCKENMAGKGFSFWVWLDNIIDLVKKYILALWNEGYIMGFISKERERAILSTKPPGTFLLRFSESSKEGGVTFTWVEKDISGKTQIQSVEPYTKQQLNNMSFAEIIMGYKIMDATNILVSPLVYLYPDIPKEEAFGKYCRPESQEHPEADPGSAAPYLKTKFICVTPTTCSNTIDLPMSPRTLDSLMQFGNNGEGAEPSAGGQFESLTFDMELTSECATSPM
Structure (SMILES),"IC50 (pY705-STAT3 in PBMC; Table 115, read-out: STAT3)","IC50 (pY641-STAT6 in PBMC; STAT6, PBMC, Table 115)","IC50 (pY705-STAT3 in PBMC; Table 1114, read-out: pSTAT3)",further results
"CCCOC(=O)[C@H](C)NP(=O)(Oc1ccccc1)[C@@H](F)c1ccc2sc(C(=O)N[C@H]3CCCC[C@H]4CC[C@@H](C(=O)N5C[C@@H](C#N)[C@H](c6ccccc6)C5)N4C3=O)cc2c1 (single isomer, unassigned) [Compound 343]",> 3000 nM,< 100 nM,–,–
"CC(C)OC(=O)[C@H](C)NP(=O)(Cc1ccc2sc(C(=O)N[C@H]3CCC[C@H]4CC[C@@H](C(=O)N5CC(c6cccnc6)C5)N4C3=O)cc2c1)Oc1ccccc1 (stereo partly drawn) [Compound 195, isopropyl (((2-(((3S,6S,9aS)-5-oxo-3-(3-(pyridin-3-yl)azetidine-1-carbonyl)octa-hydro-1H-pyrrolo[1,2-a]azepin-6-yl)carbamoyl)benzo[b]thiophen-5-yl)methyl) (phenoxy)phosphoryl)-L-alaninate]",–,–,100 to 1000 nM,"IC50 (pY641-STAT6 in PBMC; pSTAT6, PBMC, Table 1114): > 3000 nM"
"CC(C)CC(=O)SCCOP(=O)(OCCSC(=O)CC(C)C)C(F)(F)c1ccc2ccc(C(=O)N[C@H]3CCCCC[C@H]4[C@H](O)C[C@@H](C(=O)N5CC(C#N)C(c6cc[nH]c(=O)c6)C5)N4C3=O)cc2c1 (single isomer, unassigned) [Compound 167, S,S′-(((((7-(((1R,3S,6S,11aS)-3-((3S,4R or 3R,4S)-3-cyano-4-(2-oxo-1,2-dihydropyridin-4-yl)pyrrolidine-1-carbonyl)-1-hydroxy-5-oxodecahydropyrrolo [1,2-a]azocin-6-yl)carbamoyl)naphthalen-2-yl)difluoromethyl)phosphoryl)bis(oxy))bis(ethane-2,1-diyl)) bis(3-methylbutane thioate)]",–,–,> 3000 nM,IC50 (pY641-STAT6 in PBMC; [1]): 100 to 1000 nM
"CCCOC(=O)[C@H](C)NP(=O)(Oc1ccccc1)[C@H](F)c1ccc2sc(C(=O)N[C@H]3CCC[C@H]4CC[C@@H](C(=O)N5C[C@H](c6cccnc6)[C@@H](C#N)C56CC6)N4C3=O)cc2c1 (single isomer, unassigned) [Compound 354]",> 3000 nM,< 100 nM,–,–
"CC(C)CC(=O)SCCOP(=O)(OCCSC(=O)CC(C)C)C(F)(F)c1ccc2sc(C(=O)N[C@H]3CCCC[C@H]4CC[C@@H](C(=O)N5C[C@@H](C#N)[C@H](c6cc[nH]c(=O)c6)C5)N4C3=O)cc2c1 (single isomer, unassigned) [Compound 154, S,S′-(((((2-(((3S,6S,10aS)-3-((3S,4R or 3R,4S)-3-cyano-4-(2-oxo-1,2-dihydropyridin-4-yl)pyrrolidine-1-carbonyl)-5-oxodecahydro-pyrrolo[1,2-a]azocin-6-yl)carbamoyl)benzo [b]thiophen-5-yl)difluoromethyl)phosphoryl)bis (oxy))bis(ethane-2,1-diyl)) bis(3-methylbutane thioate)]",–,–,100 to 1000 nM,IC50 (pY641-STAT6 in PBMC; [1]): 100 to 1000 nM
"CC(C)CC(=O)SCCOP(=O)(OCCSC(=O)CC(C)C)C(F)(F)c1ccc2sc(C(=O)N[C@H]3C[C@@H](O)CC[C@H]4CC[C@@H](C(=O)N5C[C@@H](C#N)[C@H](c6ccccc6)C5)N4C3=O)cc2c1 (single isomer, unassigned) [Compound 135, S,S′-(((((2-(((3S,6S,8S,10aR)-3-((3S,4R or 3R,4S)-3-cyano-4-phenylpyrrolidine-1-carbonyl)-8-hydroxy-5-oxodecahydro-pyrrolo[1,2-a]azocin-6-yl)carbamoyl)benzo[b]thiophen-5-yl)difluoromethyl)phosphoryl)bis(oxy))bis (ethane-2,1-diyl)) bis(3-methylbutane-thioate)]",–,–,> 3000 nM,IC50 (pY641-STAT6 in PBMC; [1]): 100 to 1000 nM
"CC(C)CC(=O)SCCOP(=O)(OCCSC(=O)CC(C)C)C(F)(F)c1ccc2ccc(C(=O)N[C@H]3CCCC[C@H]4CC[C@@H](C(=O)N5CC(c6cc[nH]c(=O)c6)CC56CC6)N4C3=O)cc2c1 (stereo partly drawn) [Compound 1092, S,S′-((((difluoro(7-(((3S,6S,10aS)-5-oxo-3-(6-(2-oxo-1,2-dihydropyridin-4-yl)-4-azaspiro[2.4]heptane-4-carbonyl)decahydropyrrolo[1,2-a]azocin-6-yl)carbamoyl)naphthalen-2-yl)methyl)phosphoryl)bis(oxy))bis(ethane-2,1-diyl)) bis(3-methylbutanethioate)]",100 to 1000 nM,–,–,IC50 (pY641-STAT6 in PBMC; [2]): < 100 nM
"CCCOC(=O)[C@H](C)NP(=O)(Oc1ccccc1)[C@@H](F)c1ccc2sc(C(=O)N[C@H]3CCC[C@H]4CC[C@@H](C(=O)N5CC(c6cnccc6N(C)C)C5)N4C3=O)cc2c1 (stereo partly drawn) [Compound 942, propyl (((R)-(2-(((3S,6S, 9aS)-3-(3-(4-(dimethylamino)pyridin-3-yl)azetidine-1-carbonyl)-5-oxooctahydro-1H-pyrrolo[1,2-a]azepin-6-yl)carbamoyl)benzo [b]thiophen-5-yl)fluoromethyl) (phenoxy)phosphoryl)-L-alaninate]",100 to 1000 nM,> 3000 nM,–,–
"CC(C)(C)C(=O)OCOP(=O)(OCOC(=O)C(C)(C)C)C(F)(F)c1ccc2sc(C(=O)N[C@H]3CCCC[C@H]4CC[C@@H](C(=O)N5CCN(C(=O)c6cn[nH]c6)CC5)N4C3=O)cc2c1 [Compound 192, ((((2-(((3S,6S,10aS)-3-(4-(1H-pyrazole-4-carbonyl)piperazine-1-carbonyl)-5-oxodecahydro-pyrrolo[1,2-a]azocin-6-yl)carbamoyl)benzo[b]thiophen-5-yl)difluoro-methyl)phos-phoryl)bis(oxy)) bis(methylene) bis(2,2-dimethyl-propanoate)]",–,–,100 to 1000 nM,IC50 (pY641-STAT6 in PBMC; [1]): 1000 to 3000 nM
"CCCOC(=O)[C@H](C)NP(=O)(Oc1ccccc1)C(F)c1ccc2sc(C(=O)N[C@H]3CCCC[C@H]4CC[C@@H](C(=O)N5C[C@@H](c6ccccc6)[C@H](C#N)C56CC6)N4C3=O)cc2c1 (relative stereo) [Compound 325, propyl (((2-(((3S,6S,10aS)-3-((rel-trans)-7-cyano-6-phenyl-4-azaspiro[2.4]heptane-4-carbonyl)-5-oxodecahydropyrrolo [1,2-a]azocin-6-yl)carbamoyl)benzo [b]thiophen-5-yl)fluoromethyl) (phenoxy)phosphoryl)-L-alaninate]",> 3000 nM,–,–,IC50 (pY641-STAT6 in PBMC; [2]): < 100 nM
"CC(C)CC(=O)SCCOP(=O)(OCCSC(=O)CC(C)C)C(F)(F)c1ccc2sc(C(=O)N[C@H]3CCC[C@H]4CC[C@@H](C(=O)N5CC(c6ncccn6)C5)N4C3=O)cc2c1 [Compound 961, S,S′-((((difluoro(2-(((3S,6S,9aS)-5-oxo-3-(3-(pyrimidin-2-yl)azetidine-1-carbonyl)octahydro-1H-pyrrolo[1,2-a]azepin-6-yl)carbamoyl)benzo [b]thiophen-5-yl)methyl)phosphoryl)bis(oxy))bis(ethane-2,1-diyl)) bis(3-methylbutanethioate)]",< 100 nM,–,–,IC50 (pY641-STAT6 in PBMC; [2]): 1000 to 3000 nM
"COCCC(=O)SCCOP(=O)(OCCSC(=O)CCOC)C(F)(F)c1ccc2sc(C(=O)N[C@H]3CCCC[C@H]4CC[C@@H](C(=O)N5C[C@@H](C#N)[C@H](c6cc[nH]c(=O)c6)C5)N4C3=O)cc2c1 (single isomer, unassigned) [Compound 1083]",1000 to 3000 nM,–,–,IC50 (pY641-STAT6 in PBMC; [2]): 100 to 1000 nM
"CC(C)CC(=O)SCCOP(=O)(Oc1cccc(C#N)c1)C(F)(F)c1ccc2sc(C(=O)N[C@H]3CCC[C@H]4CC[C@@H](C(=O)N5CC(c6cccnc6)C5)N4C3=O)cc2c1 (stereo partly drawn) [Compound 1008, S-(2-(((3-cyanophenoxy) (difluoro(2-(((3S,6S,9aS)-5-oxo-3-(3-(pyridin-3-yl)azetidine-1-carbonyl)octahydro-1H-pyrrolo[1,2-a]azepin-6-yl)carbamoyl)benzo [b]thiophen-5-yl)methyl)phosphoryl)oxy)ethyl) 3-methylbutanethioate]",100 to 1000 nM,> 3000 nM,–,–
"CCCOC(=O)[C@H](C)NP(=O)(Oc1ccccc1)C(F)c1ccc2sc(C(=O)N[C@H]3CCC[C@H]4CC[C@@H](C(=O)N5CC(c6cnccc6OC)C5)N4C3=O)cc2c1 (stereo partly drawn) [Compound 262, propyl ((fluoro(2-(((3S,6S,9aS)-3-(3-(4-methoxypyridin-3-yl)azetidine-1-carbonyl)-5-oxooctahydro-1H-pyrrolo[1,2-a]azepin-6-yl)carbamoyl)benzo [b]thiophen-5-yl)methyl)(phenoxy)phosphoryl)-L-alaninate]",< 100 nM,> 3000 nM,–,–
